Test results: ChEMBL document CHEMBL1765041, “An unprecedented neolignan skeleton from Chimarrhis turbinata” (J Nat Prod, 2011)

Test system: Radical scavenging activity
Test: Antioxidant activity assessed as DPPH free radical scavenging activity after 30 mins in dark by spectrophotometry
Format: functional

Structure (SMILES)	IC50
COC(=O)C1(O)C[C@@H](O)[C@@H](O)[C@H](OC(=O)/C=C/c2ccc(O)c(O)c2)C1 (stereo not given in full)	18.6 µM
COC(=O)C1(O)C[C@@H](O)[C@@H](O)[C@H](OC(=O)/C=C\c2ccc(O)c(O)c2)C1 (stereo not given in full)	18.5 µM
Cc1cc(C(C)(C)C)c(O)c(C(C)(C)C)c1 [BUTYLATED HYDROXYTOLUENE]	62.5 µM

Results, then the compound that gave them:

IC50	Structure (SMILES)
7.5 µM	O=C(O[C@H]1[C@H]([C@@]2(c3ccc(O)c(O)c3)CC[C@H](Cc3ccc(O)c(O)c3)C(=O)O2)OC[C@@H]1O)c1cc(O)cc(O)c1 [CHIMARRHININ]
20 µM	O=C(/C=C/c1ccc(O)c(O)c1)O[C@@H]1C[C@](O)(C(=O)O)C[C@@H](O)[C@H]1O [CHLOROGENIC ACID]
